In US8420649B2, “Pyrido[3,2-d]pyridazine-2(1H)-one compounds as p38 modulators and methods of use thereof” (Amgen Inc., priority 2008, dated 2013):
Values joined by “and” are separate entries in the source; they are usually repeats but may differ in a detail not shown here. Equal entries are not always repeated. Where two headings read alike, the source gives them in different places.

Experiments:
human p38α = human p38α (Homo sapiens, UniProt Q16539); assay: Purified and activated recombinant human p38α HTRF kinase assay; format: biochemical; settings: recombinant human p38α 1 nM, 50 μM ATP, read-out: p38a IC50
Chain of human p38α (Q16539 whole entry): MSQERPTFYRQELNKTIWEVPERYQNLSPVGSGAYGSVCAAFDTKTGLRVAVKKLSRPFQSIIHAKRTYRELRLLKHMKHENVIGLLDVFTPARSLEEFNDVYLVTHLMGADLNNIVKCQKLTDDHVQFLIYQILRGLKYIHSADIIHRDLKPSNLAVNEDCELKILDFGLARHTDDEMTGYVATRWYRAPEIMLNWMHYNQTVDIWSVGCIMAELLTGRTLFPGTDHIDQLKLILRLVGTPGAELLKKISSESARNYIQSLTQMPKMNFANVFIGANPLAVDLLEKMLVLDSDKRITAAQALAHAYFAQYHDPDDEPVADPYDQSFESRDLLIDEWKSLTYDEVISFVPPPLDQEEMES
Description: Purified and Activated Recombinant Human p38α Assay Kinase Reaction Buffer: Kinase reaction buffer for p38α HTRF assays consists of 50 mM Tris-pH 7.5, 5 mM MgCl2, 0.1 mg/mL BSA, 100 μM Na3VO4 and 0.5 mM DTT. HTRF Detection Buffer: HTRF detection buffer contains 100 mM HEPES-pH 7.5, 100 mM NaCl, 0.1% BSA, 0.05% Tween-20, and 10 mM EDTA. Serial Dilution of Compounds: Compounds were dissolved in 100% DMSO and serially diluted (3 fold, 10 point) in a polypropylene 96-well microtiter plate (drug plate). The final starting concentration of compounds in the p38α enzymatic assays was 1 μM. […] Kinase Reaction: […] See table below for actual concentrations. In the absence of substrate, the background was measured as LO control. The reaction was allowed to incubate for 1 hour at RT. Assay Reagent Concentrations: […] HTRF Detection: […] After 60 minutes incubation at room temperature, the assay plate was read in a Discovery Plate Reader. The wells were excited with coherent 320 nm light and the ratio of delayed ([…] post excitation) emissions at […] (native europium fluorescence) and 665 nm (europium fluorescence transferred to allophycocyanin-an index of substrate phosphorylation) was determined (Park et al, 1999). Data Analysis: The proportion of substrate phosphorylated in the kinase reaction in the presence of compound compared with that phosphorylated in the presence of DMSO vehicle alone (HI control) was calculated using the formula: % control (POC)=(compound-average LO)/(average HI-average LO)*100. […] The inhibition constant (Ki) of the inhibitor was estimated from the IC50 (compound concentration at the point of inflection C) using the Cheng-Prussof equation: […] All results were expressed as the mean±the standard error of the mean.

[1] = system: IL-1β, IL-6 and TNF-α production by LPS-activated PBMC; assay: Lipopolysaccharide-activated PBMC cytokine production assay; format: cell-based; settings: Homo sapiens, read-out: IC50 in the whole blood PMBC assay
Description: Lipopolysaccharide-Activated PBMC Cytokine Production Assay
Test compounds were evaluated in vitro for the ability to inhibit the production of IL-1β, IL-6, and TNF-α by PBMC activated with bacterial lipopolysaccharide (LPS). Fresh leukocytes were obtained from a local blood bank, and peripheral blood mononuclear cells (PBMCs) were isolated by density gradient centrifugation on Ficol-Paque Plus (Pharmacia).
Preparation of Test Compound Stock Solutions
All reagents were prepared in RPMI 1640+10% v/v human AB serum+1× Pens/Strep/Glu (assay medium). Test compounds were dissolved in 100% DMSO and serially diluted in 96-well polypropylene round bottom micro titer plates (drug plate). Serial dilutions were then diluted 1:250 into assay medium to a 4× working concentration. Compound serial dilutions were half-log, 10 point titrations with a final starting concentration of 1 μM.
Treatment of Cells with Test Compounds and Activation with Lipopolysaccharide
LPS was prepared to a 4× concentration in assay medium. 100 μl of PBMC (1×10^6 cells/ml) were plated in a 96-well polystyrene flat bottom micro titer tissue culture plate and incubated with 50 μl of 4× compound serial dilution for 1 hour at 37° C., 5% CO2 in a tissue culture incubator. 50 μl 4×LPS or control was added and the plates were incubated at 37° C., 5% CO2 in a tissue culture incubator for 18 hours. The final DMSO concentration was 0.1%. The total volume was 200 μL. The final LPS concentration was 100 ng/mL. After 18 hours culture supernatants were removed and IL-1β, IL-6, and TNF-α presence in the supernatants was quantified using MSD ECL based technology.
20 μL of culture supernatant were added to MSD plates, and incubated for one hour at room temperature. 20 μL of detection antibody diluted in antibody diluent (1 μg/mL), and 110 μL of 2× Read Buffer P was added, and incubated for one hour at RT. Electrochemiluminescence was measured using the SECTOR HTS Imager (MSD, Gaithersburg, Md.).
Compound IC50 values were calculated as follows: The proportion of cytokine production in the presence of compound compared to the cytokine production in the presence of the DMSO vehicle alone (Hi control) was calculated using the formula: Percent Control (POC)=(compound−average Lo)/(average Hi−average Lo)*100.

[2] = system: TNF-α production by LPS-activated THP1 cells; assay: Lipopolysaccharide-activated THP1 cell TNF production assay; format: cell-based; settings: Homo sapiens, THP-1, 3 hours, read-out: IC50 in the THP-1 cellular TNF production assay
Description: Lipopolysaccharide-activated THP1 Cell TNF Production Assay
THP1 cells were resuspended in fresh THP1 media (RPMI 1640, 10% heat-inactivated FBS, 1×PGS, 1×NEAA, plus 30 μM βME) at a concentration of 1.5×10^6 cells per mL. One hundred microliters of cells per well were plated in a polystyrene 96-well tissue culture plate. 1.5 micrograms per mL of bacterial LPS was prepared in THP1 media and transferred to the first 11 columns of a 96-well polypropylene plate. Column 12 contained only THP1 media for the LO control. Compounds were dissolved in 100% DMSO and serially diluted 3 fold in a polypropylene 96-well microtiter plate (drug plate). Columns 6 and 12 were reserved as controls (HI controls and LO controls respectively) and contained only DMSO. […] Fifty microliters of conditioned media was transferred to a 96-well MULTI-ARRAY™ 96-well small spot plate—custom coated with MAB610 containing 100 μL of 2× Read Buffer P supplemented with 0.34 nM AF210NA polyclonal Ab labeled with ruthenium (MSD-Sulfo-TAG™—NHS ester). After an overnight incubation at room temperature with shaking, the reaction was read on the Sector Imager™ 6000. […] The amount of secreted TNF-α in the presence of test compounds compared with that in the presence of DMSO vehicle alone (HI control) was calculated using the formula: % control (POC)=(cpd−average LO)/(average HI−averageLO)*100. […]

[3] = system: TNF-α induced IL-8 production in human whole blood; assay: Inhibition of TNF-α induced IL-8 in 50% human whole blood; format: cell-based
Description: Inhibition of TNF-α Induced IL-8 in 50% Human Whole Blood Test compounds were evaluated in vitro for the ability to inhibit the production of secreted IL-8 by whole blood activated with TNF-α. Fresh human whole blood was obtained from healthy, non-medicated volunteers in sodium heparin tubes. Compound Dilution—Assay Procedure […] Cytokine Measurement Cytokines are measured on antibody (Ab) sandwich ECL based 96-well detection plates. 20 ul of supernatant are added to plate and plate is sealed and shaken at RT for 1 hour. 130 ul of detection Ab cocktail is added and plates are sealed and shaken for 1 hour in the dark at RT. Plates are read on MSD Sector HTS instrument.

[4] = Homo sapiens, read-out: WB TNF/IL8 IC50, TNF-α (1 nM) induced IL-8, 50% human whole blood, 16-18 hours

Structure (SMILES)	IC50 (human p38α)	IC50 ([1]; LPS 100 ng/mL, 18 hours)	IC50 ([1]; 18 h)	IC50 [2]	IC50 [3, 4]	IC50 ([3]; read-out: WB TNF/IL8 IC50, TNF-α (1 nM) induced IL-8, 50% human whole blood, 16-18 hours)
Cn1c(=O)c(Nc2ccc(F)cc2)cc2cnnc(-c3ccc(F)cc3F)c21 [Example 11, 8-(2,4-difluorophenyl)-3-((4-fluorophenyl)amino)-1-methylpyrido[2,3-d]pyridazin-2(1H)-one]	2.2 nM	≤ 1000 nM	–	–	–	–
Cn1c(=O)c(Oc2ccc(F)cc2F)cc2cnnc(-c3ccccc3Cl)c21 [Example 6, 8-(2-chlorophenyl)-3-(2,4-difluorophenoxy)-1-methylpyrido[2,3-d]pyridazin-2(1H)-one]	0.6 nM	–	≤ 1000 nM	–	–	–
Cn1c(=O)c(Nc2ccc(F)cc2F)cc2cnnc(-c3ccc(F)cc3F)c21 [Example 1, 8-(2,4-difluorophenyl)-3-(2,4-difluorophenylamino)-1-methylpyrido[3,2-d]pyridazin-2(1H)-one]	0.8 nM	–	≤ 1000 nM	≤ 1000 nM	–	–
Cn1c(=O)c(Oc2ccc(F)cc2F)cc2cnnc(-c3ccc(F)cc3F)c21 [Example 12, 3-(2,4-difluorophenoxy)-8-(2,4-difluorophenyl)-1-methylpyrido[2,3-d]pyridazin-2(1H)-one]	8.4 nM	≤ 1000 nM	–	–	–	–
Cn1c(=O)c(Nc2ccc(F)cc2F)cc2cnnc(-c3ccc(S(C)(=O)=O)cc3Cl)c21 [Example 10, 8-(2-chloro-4-(methylsulfonyl)phenyl)-3-((2,4-difluorophenyl)amino)-1-methylpyrido[2,3-d]pyridazin-2(1 H)-one]	0.8 nM	≤ 1000 nM	–	–	–	–
Cc1cc(S(C)(=O)=O)ccc1-c1nncc2cc(Nc3ccc(F)cc3F)c(=O)n(C)c12 [Example 8, 3-((2,4-difluorophenyl)amino)-1-methyl-8-(2-methyl-4-(methylsulfonyl)phenyl)pyrido[2,3-d]pyridazin-2(1H)-one]	1.7 nM	–	≤ 1000 nM	–	–	–
Cn1c(=O)c(Nc2ccc(F)cn2)cc2cnnc(-c3ccc(F)cc3F)c21 [Example 4, 8-(2,4-difluorophenyl)-3-((5-fluoro-2-pyridinyl)amino)-1-methylpyrido[2,3-d]pyridazin-2(1H)-one]	327 nM	–	–	–	> 2500 nM	–
Cn1c(=O)c(Nc2ncc(F)cc2F)cc2cnnc(-c3ccc(F)cc3F)c21 [Example 7, 8-(2,4-difluorophenyl)-3-((3,5-difluoro-2-pyridinyl)amino)-1-methylpyrido[2,3-d]pyridazin-2(1H)-one]	111 nM	–	–	–	> 2500 nM	–
CCn1c(=O)c(Nc2ccc(F)cc2F)cc2cnnc(-c3ccc(F)cc3F)c21 [Example 5, 8-(2,4-difluorophenyl)-3-((2,4-difluorophenyl)amino)-1-ethylpyrido[2,3-d]pyridazin-2(1H)-one]	0.2 nM	–	≤ 1000 nM	–	–	–
Cn1c(=O)c(Nc2ccc(F)cc2F)cc2cnnc(-c3ccc(C(F)(F)F)cc3F)c21 [Example 3, 3-(2,4-difluorophenylamino)-8-(2-fluoro-4-(trifluoromethyl)phenyl)-1-methylpyrido[3,2-d]pyridazin-2(1H)-one]	2.3 nM	–	≤ 1000 nM	–	–	–
Cc1cc(S(C)(=O)=O)ccc1-c1nncc2cc(Oc3ccc(F)cc3F)c(=O)n(C)c12 [Example 9, 3-(2,4-difluorophenoxy)-1-methyl-8-(2-methyl-4-(methylsulfonyl)phenyl)pyrido[2,3-d]pyridazin-2(1H)-one]	11 nM	≤ 1000 nM	–	–	–	–
Cn1c(=O)c(Oc2ccc(F)cc2)cc2cnnc(-c3ccc(F)cc3F)c21 [Example 2, 8-(2,4-difluorophenyl)-3-(4-fluorophenoxy)-1-methylpyrido[3,2-d]pyridazin-2(1H)-one]	≤ 125 nM and 102 nM	–	≤ 1000 nM	≤ 1000 nM	≤ 300 nM	273 nM
